Drawing on article PMC10091362 (Lab on a Chip, 2023), this text covers Km for 3 molecules.

One series addresses beta-galactosidase (Escherichia coli, UniProt P00722). As to the kind of experiment: droplet microfluidic steady-state Michaelis–Menten kinetics. Format: biochemical.
Substrate in the series “purified protein”: CC(=O)N1c2ccc(O)cc2Oc2cc(O)ccc21
As to the kind of experiment: purified protein. The note with it: H2O2 (co-substrate).

beta-galactosidase, sequence (P00722 2-1024): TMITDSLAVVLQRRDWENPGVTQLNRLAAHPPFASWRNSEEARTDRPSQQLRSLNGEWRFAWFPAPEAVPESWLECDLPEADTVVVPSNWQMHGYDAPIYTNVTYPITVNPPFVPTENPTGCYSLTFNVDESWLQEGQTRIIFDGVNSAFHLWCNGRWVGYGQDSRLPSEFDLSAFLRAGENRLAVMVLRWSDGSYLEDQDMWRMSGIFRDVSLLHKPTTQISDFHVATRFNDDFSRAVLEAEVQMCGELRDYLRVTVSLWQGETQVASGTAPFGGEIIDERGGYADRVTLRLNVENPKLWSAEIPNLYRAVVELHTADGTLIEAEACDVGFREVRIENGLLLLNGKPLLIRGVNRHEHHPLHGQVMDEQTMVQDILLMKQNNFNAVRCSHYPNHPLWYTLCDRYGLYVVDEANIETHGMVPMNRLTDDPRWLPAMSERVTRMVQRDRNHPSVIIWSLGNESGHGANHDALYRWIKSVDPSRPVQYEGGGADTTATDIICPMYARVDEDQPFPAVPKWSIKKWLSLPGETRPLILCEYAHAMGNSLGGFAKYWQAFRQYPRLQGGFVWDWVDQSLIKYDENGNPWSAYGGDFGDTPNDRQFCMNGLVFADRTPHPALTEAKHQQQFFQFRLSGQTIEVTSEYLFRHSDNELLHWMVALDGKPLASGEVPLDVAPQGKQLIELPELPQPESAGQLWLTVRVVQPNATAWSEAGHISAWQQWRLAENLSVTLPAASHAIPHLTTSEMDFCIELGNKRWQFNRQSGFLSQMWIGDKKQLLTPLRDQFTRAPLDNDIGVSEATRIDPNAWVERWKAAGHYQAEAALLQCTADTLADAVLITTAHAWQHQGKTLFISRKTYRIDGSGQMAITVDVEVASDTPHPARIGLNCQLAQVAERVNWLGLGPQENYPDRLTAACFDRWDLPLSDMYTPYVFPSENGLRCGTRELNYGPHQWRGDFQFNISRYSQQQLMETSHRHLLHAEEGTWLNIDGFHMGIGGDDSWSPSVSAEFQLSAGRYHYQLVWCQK

Regarding `O=C1OC2(c3ccc(O[C@@H]4O[C@H](CO)[C@H](O)[C@H](O)[C@H]4O)cc3Oc3cc(O[C@@H]4O[C@H](CO)[C@H](O)[C@H](O)[C@H]4O)ccc32)c2ccccc21` [Fluorescein di-beta-D-galactopyranoside], at beta-galactosidase, the Km (as a rule, the concentration of substrate that gives half-maximal velocity) came to 19.8 ± 1.4 µM.

Turning to `O=c1ccc2nc3ccc(O[C@@H]4O[C@H](CO)[C@H](O)[C@H](O)[C@H]4O)cc3oc-2c1` [resorufin beta-D-galactopyranoside], the Km at beta-galactosidase is 408 ± 140 µM.

B1: horseradish peroxidase (Armoracia rusticana) (protein)
chain: QLTPTFYDNSCPNVSNIVRDTIVNELRSDPRIAASILRLHFHDCFVNGCDASILLDNTTSFRTEKDAFGNANSARGFPVIDRMKAAVESACPRTVSCADLLTIAAQQSVTLAGGPSWRVPLGRRDSLQAFLDLANANLPAPFFTLPQLKDSFRNVGLNRSSDLVALSGGHTFGKNQCRFIMDRLYNFSNTGLPDPTLNTTYLQTLRGLCPLNGNLSALVDFDLRTPTIFDNKYYVNLEEQKGLIQSDQELFSSPNATDTIPLVRSFANSTQTFFNAFVEAMDRMGNITPLTGTQGQIRLNCRVVNSNS
In the case of B1, the Km in “purified protein” was 20 ± 1.8 µM.
